Laboratory results: patent publication US10407454B2, “Defined enzymatic synthesis of lipid A analogs” (The Board of Trustees of the Leland Stanford Junior …, priority 2016, dated 2019)

Biological target: T1, TLR4 (Homo sapiens, UniProt O00206+Q9Y6Y9)
T1 construct: endogenous in cells; host or cells: HUVEC
Assay: TLR signaling assay: IL-6 release (ELISA) from LPS-stimulated HUVEC cells pretreated with Lipid IVA or analogs
Format: cell-based
Details: 1 hour pretreatment, then 100 ng/mL LPS, supernatant 18 hours after LPS, mean ± SD of triplicate wells (LPS only: 425 ± 7)
Description: Antagonistic Effect of Unsaturated Lipid IVA. To examine the antagonistic effect of the Lipid IVA analogues produced by our reconstituted system, products from sample 1-3 were assayed against LPS stimulated HUVEC microphage cell line. IL-6 level was measured as an indicator of TLR4 suppression. As a negative control, an in vitro reaction lacking acetyl-CoA was run and processed in parallel. Lipid IVA samples was quantified via mass spectrometry by comparing with a standard curve generated from synthetic Lipid IVA standard. […]
TLR Signaling Assays. HUVECs were grown to approximately 80% confluency in plastic 48-well cell culture plates. Six hours prior to the beginning the assay, medium was aspirated and replaced with 200 μL fresh medium per well. 100× stock dilutions of LPS (in sterile water) and Lipid IVa (in methanol) were freshly prepared from lyophilized solids. Cells were subjected to a 1-hour preincubation with the indicated amounts of Lipid IVa, or Samples 1, 2, or 3, and then LPS (100 ng/mL) was added. Aliquots of the culture supernatant were taken after 18 hours, frozen at −20 C, and then analyzed for IL-6 using a commercial ELISA kit following the manufacturer's (eBioSciences) recommended protocol.

T1 sequence (O00206 24-839): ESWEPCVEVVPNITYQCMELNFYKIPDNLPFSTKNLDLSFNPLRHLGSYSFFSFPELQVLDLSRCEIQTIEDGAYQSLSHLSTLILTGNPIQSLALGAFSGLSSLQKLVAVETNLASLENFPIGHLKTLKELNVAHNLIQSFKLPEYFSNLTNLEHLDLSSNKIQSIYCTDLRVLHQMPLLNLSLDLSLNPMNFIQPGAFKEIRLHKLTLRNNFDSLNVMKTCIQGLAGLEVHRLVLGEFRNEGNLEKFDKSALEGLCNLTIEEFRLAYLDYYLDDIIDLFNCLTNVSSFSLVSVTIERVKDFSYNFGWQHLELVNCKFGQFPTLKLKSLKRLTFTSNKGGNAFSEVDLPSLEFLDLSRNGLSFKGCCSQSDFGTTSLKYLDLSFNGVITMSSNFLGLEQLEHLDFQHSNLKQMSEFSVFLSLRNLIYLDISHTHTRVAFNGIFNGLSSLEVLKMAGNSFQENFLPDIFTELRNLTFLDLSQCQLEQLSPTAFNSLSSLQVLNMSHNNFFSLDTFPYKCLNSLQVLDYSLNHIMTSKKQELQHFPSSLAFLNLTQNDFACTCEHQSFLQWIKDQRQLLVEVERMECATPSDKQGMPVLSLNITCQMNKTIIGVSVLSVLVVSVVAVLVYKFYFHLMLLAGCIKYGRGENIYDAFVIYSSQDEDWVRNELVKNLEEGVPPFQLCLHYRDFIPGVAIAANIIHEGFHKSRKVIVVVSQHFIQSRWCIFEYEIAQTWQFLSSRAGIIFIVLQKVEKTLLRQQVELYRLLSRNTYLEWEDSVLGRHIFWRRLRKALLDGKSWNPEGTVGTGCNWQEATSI
T1 sequence (Q9Y6Y9 19-160): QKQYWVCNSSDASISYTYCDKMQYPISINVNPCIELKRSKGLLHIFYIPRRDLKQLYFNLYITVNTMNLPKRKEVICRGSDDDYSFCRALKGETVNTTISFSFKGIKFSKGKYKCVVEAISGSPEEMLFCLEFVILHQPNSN

[IL-6] (pg/mL) in HUVEC culture supernatant (10 ng/mL compound): 484 ± 25 pg/mL | [IL-6] (pg/mL) in HUVEC culture supernatant (100 ng/mL compound): 212 ± 33 pg/mL | [IL-6] (pg/mL) in HUVEC culture supernatant (500 ng/mL compound): 57 ± 3 pg/mL
SMILES: CCCCCCCCCCC[C@@H](O)CC(=O)N[C@H]1[C@H](OC[C@H]2O[C@H](OP(=O)(O)O)[C@H](NC(=O)C[C@H](O)CCCCCCCCCCC)[C@@H](OC(=O)C[C@H](O)CCCCCCCCCCC)[C@@H]2O)O[C@H](CO)[C@@H](OP(=O)(O)O)[C@@H]1OC(=O)C[C@H](O)CCCCCCCCCCC [Lipid IVA]
